Experimental data published in patent US4740601A, “Imidazole derivatives having antimicrobial activities” (SS Pharmaceutical Co., Ltd., priority 1985, dated 1988).
Converted amounts (≈) assume the structure as drawn.

Test system: Streptococcus faecalis IFO 12964
Assay: antimicrobial activity, MIC
Type: cell-based
Details: Enterococcus faecalis, IFO12964, Streptococcus faecalis IFO 12964; read-out: MIC

SMILES	MIC
CCCCOc1ccccc1C(=CSCc1ccccc1)n1ccnc1 (single isomer, unassigned) [Compound 8]	> 100 µg/mL
CCCOc1ccccc1C(=CSCCC)n1ccnc1 (single isomer, unassigned) [Compound 39]	25 µg/mL (≈ 82.7 µM)

Test system: Candida albicans Yu-1200
Assay: antimicrobial activity, MIC
Type: cell-based
Details: YU1200, read-out: MIC

SMILES	MIC
CCCCOc1ccccc1C(=CSCc1ccccc1)n1ccnc1 (single isomer, unassigned) [Compound 8]	> 100 µg/mL
CCCOc1ccccc1C(=CSCCC)n1ccnc1 (single isomer, unassigned) [Compound 39]	50 µg/mL (≈ 165 µM)

Test system: Fusarium moniliforme IAM 5062
Assay: antimicrobial activity, MIC
Type: cell-based
Details: Fusarium verticillioides, IAM5062, Fusarium moniliforme IAM 5062; read-out: MIC

SMILES	MIC
CCCCOc1ccccc1C(=CSCc1ccccc1)n1ccnc1 (single isomer, unassigned) [Compound 8]	12.5 µg/mL (≈ 34.3 µM)
CCCOc1ccccc1C(=CSCCC)n1ccnc1 (single isomer, unassigned) [Compound 39]	0.78 µg/mL (≈ 2.58 µM)

Test system: Staphylococcus aureus Terajima
Assay: antimicrobial activity, MIC
Type: cell-based
Details: Staphylococcus aureus, read-out: MIC

SMILES	MIC
CCCCOc1ccccc1C(=CSCc1ccccc1)n1ccnc1 (single isomer, unassigned) [Compound 8]	6.25 µg/mL (≈ 17.1 µM)
CCCOc1ccccc1C(=CSCCC)n1ccnc1 (single isomer, unassigned) [Compound 39]	25 µg/mL (≈ 82.7 µM)

Test system: Epidermophyton floccosum IFO 9045
Assay: antimicrobial activity, MIC
Type: cell-based
Details: Epidermophyton floccosum, IFO9045, Epidermophyton floccosum IFO 9045; read-out: MIC

SMILES	MIC
CCCCOc1ccccc1C(=CSCc1ccccc1)n1ccnc1 (single isomer, unassigned) [Compound 8]	6.25 µg/mL (≈ 17.1 µM)
CCCOc1ccccc1C(=CSCCC)n1ccnc1 (single isomer, unassigned) [Compound 39]	1.56 µg/mL (≈ 5.16 µM)

Test system: Microsporum gypseum IFO 8231
Assay: antimicrobial activity, MIC
Type: cell-based
Details: Nannizzia gypsea, IFO8231, Microsporum gypseum IFO 8231; read-out: MIC

SMILES	MIC
CCCCOc1ccccc1C(=CSCc1ccccc1)n1ccnc1 (single isomer, unassigned) [Compound 8]	0.39 µg/mL (≈ 1.07 µM)
CCCOc1ccccc1C(=CSCCC)n1ccnc1 (single isomer, unassigned) [Compound 39]	0.39 µg/mL (≈ 1.29 µM)

Test system: Bacillus subtilis ATCC 6633
Assay: antimicrobial activity, MIC
Type: cell-based
Details: Bacillus subtilis, ATCC6633, Bacillus subtilis ATCC 6633; read-out: MIC

SMILES	MIC
CCCCOc1ccccc1C(=CSCc1ccccc1)n1ccnc1 (single isomer, unassigned) [Compound 8]	3.12 µg/mL (≈ 8.56 µM)
CCCOc1ccccc1C(=CSCCC)n1ccnc1 (single isomer, unassigned) [Compound 39]	12.5 µg/mL (≈ 41.3 µM)

Test system: Gibberella fujikuroi IAM 8046
Assay: antimicrobial activity, MIC
Type: cell-based
Details: Fusarium fujikuroi, IAM8046, Gibberella fujikuroi IAM 8046; read-out: MIC

SMILES	MIC
CCCCOc1ccccc1C(=CSCc1ccccc1)n1ccnc1 (single isomer, unassigned) [Compound 8]	6.25 µg/mL (≈ 17.1 µM)
CCCOc1ccccc1C(=CSCCC)n1ccnc1 (single isomer, unassigned) [Compound 39]	0.78 µg/mL (≈ 2.58 µM)

Test system: Staphylococcus aureus FDA 209P
Assay: antimicrobial activity, MIC
Type: cell-based
Details: Staphylococcus aureus, FDA209P, read-out: MIC

SMILES	MIC
CCCCOc1ccccc1C(=CSCc1ccccc1)n1ccnc1 (single isomer, unassigned) [Compound 8]	25 µg/mL (≈ 68.6 µM)
CCCOc1ccccc1C(=CSCCC)n1ccnc1 (single isomer, unassigned) [Compound 39]	25 µg/mL (≈ 82.7 µM)

Test system: Helminthosporium sesamum IAM 5012
Assay: antimicrobial activity, MIC
Type: cell-based
Details: Helminthosporium, IAM5012, Helminthosporium sesamum IAM 5012; read-out: MIC

SMILES	MIC
CCCCOc1ccccc1C(=CSCc1ccccc1)n1ccnc1 (single isomer, unassigned) [Compound 8]	0.78 µg/mL (≈ 2.14 µM)
CCCOc1ccccc1C(=CSCCC)n1ccnc1 (single isomer, unassigned) [Compound 39]	0.39 µg/mL (≈ 1.29 µM)

Test system: Staphylococcus epidermidis ATCC 12228
Assay: antimicrobial activity, MIC
Type: cell-based
Details: Staphylococcus epidermidis, ATCC12228, Staphylococcus epidermidis ATCC 12228; read-out: MIC

SMILES	MIC
CCCCOc1ccccc1C(=CSCc1ccccc1)n1ccnc1 (single isomer, unassigned) [Compound 8]	6.25 µg/mL (≈ 17.1 µM)
CCCOc1ccccc1C(=CSCCC)n1ccnc1 (single isomer, unassigned) [Compound 39]	25 µg/mL (≈ 82.7 µM)

Test system: Cladosporium fulvum IAM 5006
Assay: antimicrobial activity, MIC
Type: cell-based
Details: Fulvia fulva, IAM5006, Cladosporium fulvum IAM 5006; read-out: MIC

SMILES	MIC
CCCCOc1ccccc1C(=CSCc1ccccc1)n1ccnc1 (single isomer, unassigned) [Compound 8]	> 100 µg/mL
CCCOc1ccccc1C(=CSCCC)n1ccnc1 (single isomer, unassigned) [Compound 39]	25 µg/mL (≈ 82.7 µM)

Test system: Pyricularia oryzae IAM 5016
Assay: microbe, parasite or virus in culture
Type: cell-based
Details: Pyricularia oryzae, IAM5016, Pyricularia oryzae IAM 5016

SMILES	MIC
CCCCOc1ccccc1C(=CSCc1ccccc1)n1ccnc1 (single isomer, unassigned) [Compound 8]	< 0.2 µg/mL
CCCOc1ccccc1C(=CSCCC)n1ccnc1 (single isomer, unassigned) [Compound 39]	< 0.2 µg/mL

Test system: Trichophyton mentagrophytes QM 248
Assay: antimicrobial activity, MIC
Type: cell-based
Details: Trichophyton mentagrophytes, QM248, Trichophyton mentagrophytes QM 248; read-out: MIC

SMILES	MIC
CCCCOc1ccccc1C(=CSCc1ccccc1)n1ccnc1 (single isomer, unassigned) [Compound 8]	0.39 µg/mL (≈ 1.07 µM)
CCCOc1ccccc1C(=CSCCC)n1ccnc1 (single isomer, unassigned) [Compound 39]	0.39 µg/mL (≈ 1.29 µM)

Test system: Penicillium chrysogenum ATCC 6010
Assay: antimicrobial activity, MIC
Type: cell-based
Details: Penicillium chrysogenum, ATCC6010, Penicillium chrysogenum ATCC 6010; read-out: MIC

SMILES	MIC
CCCCOc1ccccc1C(=CSCc1ccccc1)n1ccnc1 (single isomer, unassigned) [Compound 8]	12.5 µg/mL (≈ 34.3 µM)
CCCOc1ccccc1C(=CSCCC)n1ccnc1 (single isomer, unassigned) [Compound 39]	1.56 µg/mL (≈ 5.16 µM)

Test system: Debaryomyces kloeckeri IFO 0015
Assay: antimicrobial activity, MIC
Type: cell-based
Details: IFO0015, read-out: MIC

SMILES	MIC
CCCCOc1ccccc1C(=CSCc1ccccc1)n1ccnc1 (single isomer, unassigned) [Compound 8]	6.25 µg/mL (≈ 17.1 µM)
CCCOc1ccccc1C(=CSCCC)n1ccnc1 (single isomer, unassigned) [Compound 39]	6.25 µg/mL (≈ 20.7 µM)

Test system: Micrococcus lysodeixticus IFO 3333
Assay: antimicrobial activity, MIC
Type: cell-based
Details: Micrococcus, IFO3333, Micrococcus lysodeixticus IFO 3333; read-out: MIC

SMILES	MIC
CCCCOc1ccccc1C(=CSCc1ccccc1)n1ccnc1 (single isomer, unassigned) [Compound 8]	1.56 µg/mL (≈ 4.28 µM)
CCCOc1ccccc1C(=CSCCC)n1ccnc1 (single isomer, unassigned) [Compound 39]	6.25 µg/mL (≈ 20.7 µM)

Test system: Microsporum cookei IFO 8303
Assay: antimicrobial activity, MIC
Type: cell-based
Details: Paraphyton cookei, IFO8303, Microsporum cookei IFO 8303; read-out: MIC

SMILES	MIC
CCCCOc1ccccc1C(=CSCc1ccccc1)n1ccnc1 (single isomer, unassigned) [Compound 8]	12.5 µg/mL (≈ 34.3 µM)
CCCOc1ccccc1C(=CSCCC)n1ccnc1 (single isomer, unassigned) [Compound 39]	1.56 µg/mL (≈ 5.16 µM)

Test system: Staphylococcus aureus Smith
Assay: antimicrobial activity, MIC
Type: cell-based
Details: Staphylococcus aureus, read-out: MIC

SMILES	MIC
CCCCOc1ccccc1C(=CSCc1ccccc1)n1ccnc1 (single isomer, unassigned) [Compound 8]	6.25 µg/mL (≈ 17.1 µM)
CCCOc1ccccc1C(=CSCCC)n1ccnc1 (single isomer, unassigned) [Compound 39]	25 µg/mL (≈ 82.7 µM)

Test system: Candida albicans NHL 4019
Assay: antimicrobial activity, MIC
Type: cell-based
Details: Candida albicans, NHL4019, Candida albicans NHL 4019; read-out: MIC

SMILES	MIC
CCCCOc1ccccc1C(=CSCc1ccccc1)n1ccnc1 (single isomer, unassigned) [Compound 8]	> 100 µg/mL
CCCOc1ccccc1C(=CSCCC)n1ccnc1 (single isomer, unassigned) [Compound 39]	25 µg/mL (≈ 82.7 µM)

Test system: Saccharomyces ruxii 6507
Assay: antimicrobial activity, MIC
Type: cell-based
Details: Saccharomyces ruxii 6507; read-out: MIC

SMILES	MIC
CCCCOc1ccccc1C(=CSCc1ccccc1)n1ccnc1 (single isomer, unassigned) [Compound 8]	< 0.2 µg/mL
CCCOc1ccccc1C(=CSCCC)n1ccnc1 (single isomer, unassigned) [Compound 39]	0.78 µg/mL (≈ 2.58 µM)

Test system: Trichophyton rubrum NHL J
Assay: antimicrobial activity, MIC
Type: cell-based
Details: Trichophyton rubrum, Trichophyton rubrum NHL J; read-out: MIC

SMILES	MIC
CCCCOc1ccccc1C(=CSCc1ccccc1)n1ccnc1 (single isomer, unassigned) [Compound 8]	< 0.2 µg/mL
CCCOc1ccccc1C(=CSCCC)n1ccnc1 (single isomer, unassigned) [Compound 39]	< 0.2 µg/mL

Test system: Sarcina lutea ATCC 9341
Assay: antimicrobial activity, MIC
Type: cell-based
Details: Micrococcus luteus, ATCC9341, Sarcina lutea ATCC 9341; read-out: MIC

SMILES	MIC
CCCCOc1ccccc1C(=CSCc1ccccc1)n1ccnc1 (single isomer, unassigned) [Compound 8]	3.12 µg/mL (≈ 8.56 µM)
CCCOc1ccccc1C(=CSCCC)n1ccnc1 (single isomer, unassigned) [Compound 39]	12.5 µg/mL (≈ 41.3 µM)

Test system: Aspergillus oryzae IMF 4014
Assay: antimicrobial activity, MIC
Type: cell-based
Details: Aspergillus oryzae, IMF4014, Aspergillus oryzae IMF 4014; read-out: MIC

SMILES	MIC
CCCCOc1ccccc1C(=CSCc1ccccc1)n1ccnc1 (single isomer, unassigned) [Compound 8]	12.5 µg/mL (≈ 34.3 µM)
CCCOc1ccccc1C(=CSCCC)n1ccnc1 (single isomer, unassigned) [Compound 39]	0.78 µg/mL (≈ 2.58 µM)

Test system: Microsporum audounii IFO 6074
Assay: antimicrobial activity, MIC
Type: cell-based
Details: Microsporum, IFO6074, Microsporum audounii IFO 6074; read-out: MIC

SMILES	MIC
CCCCOc1ccccc1C(=CSCc1ccccc1)n1ccnc1 (single isomer, unassigned) [Compound 8]	< 0.2 µg/mL
CCCOc1ccccc1C(=CSCCC)n1ccnc1 (single isomer, unassigned) [Compound 39]	< 0.2 µg/mL

Test system: Saccharomyces cerevisiae ATCC 9763
Assay: antimicrobial activity, MIC
Type: cell-based
Details: Saccharomyces cerevisiae, ATCC9763, Saccharomyces cerevisiae ATCC 9763; read-out: MIC

SMILES	MIC
CCCCOc1ccccc1C(=CSCc1ccccc1)n1ccnc1 (single isomer, unassigned) [Compound 8]	< 0.2 µg/mL
CCCOc1ccccc1C(=CSCCC)n1ccnc1 (single isomer, unassigned) [Compound 39]	0.39 µg/mL (≈ 1.29 µM)

Test system: Aspergillus niger ATCC 9642
Assay: antimicrobial activity, MIC
Type: cell-based
Details: Aspergillus niger, ATCC9642, Aspergillus niger ATCC 9642; read-out: MIC

SMILES	MIC
CCCCOc1ccccc1C(=CSCc1ccccc1)n1ccnc1 (single isomer, unassigned) [Compound 8]	12.5 µg/mL (≈ 34.3 µM)
CCCOc1ccccc1C(=CSCCC)n1ccnc1 (single isomer, unassigned) [Compound 39]	1.56 µg/mL (≈ 5.16 µM)

Test system: Trichophyton mentagrophytes IFO 5812
Assay: antimicrobial activity, MIC
Type: cell-based
Details: Trichophyton mentagrophytes, IFO5812, Trichophyton mentagrophytes IFO 5812; read-out: MIC

SMILES	MIC
CCCCOc1ccccc1C(=CSCc1ccccc1)n1ccnc1 (single isomer, unassigned) [Compound 8]	0.39 µg/mL (≈ 1.07 µM)
CCCOc1ccccc1C(=CSCCC)n1ccnc1 (single isomer, unassigned) [Compound 39]	0.39 µg/mL (≈ 1.29 µM)

Test system: Trichophyton tonsurans IFO 5928
Assay: antimicrobial activity, MIC
Type: cell-based
Details: Trichophyton tonsurans, IFO5928, Trichophyton tonsurans IFO 5928; read-out: MIC

SMILES	MIC
CCCCOc1ccccc1C(=CSCc1ccccc1)n1ccnc1 (single isomer, unassigned) [Compound 8]	< 0.2 µg/mL
CCCOc1ccccc1C(=CSCCC)n1ccnc1 (single isomer, unassigned) [Compound 39]	0.39 µg/mL (≈ 1.29 µM)
